# According to patent US5741643A, “Oligonucleotide clamps” (Lynx Therapeutics, Inc., priority 1995, dated 1998):
# Legend:
# [1] = system: target polynucleotide 5'-[…]-3' (pol and nef genes of HIV); assay: Melting temperature of oligonucleotide clamp/target polynucleotide complex (260 nm absorption v. temperature curve); format: binding; conditions: half maximum of the 260 nm absorption v. temperature curve
# Description: Preferably, stability of oligonucleotide clamp/target polynucleotide complexes are determined by way of melting, or strand dissociation, curves. The temperature of fifty percent strand dissociation is taken as the melting temperature, Tm, which, in turn, provides a convenient measure of stability. Tm measurements are typically carried out in a saline solution at neutral pH with target and clamp concentrations at between about 1.0-2.0 μM. Typical conditions are as follows: 150 mM NaCl and 10 mM MgCl2 in a 10 mM sodium phosphate buffer (pH 7.0) or in a 10 mM Tris-HCl buffer (pH 7.0); or like conditions. Data for melting curves are accumulated by heating a sample of the oligonucleotide clamp/target polynucleotide complex from room temperature to about 85°-90° C. As the temperature of the sample increases, absorbance of 260 nm light is monitored at 1° C. intervals, e.g. using a Cary (Australia) model 1E or a Hewlett-Packard (Palo Alto, Calif.) model HP 8459 UV/VIS spectrophotometer and model HP 89100A temperature controller, or like instruments.
# The oligonucleotides and oligonucleotide clamps listed in the Table I below were synthesized in accordance with Example 1 for specific binding to the following single stranded or double stranded target polynucleotides:
# The melting temperature of the following compounds were determined by computing the half maximum of the 260 nm absorption v. temperature curve, as described above: DL015:39.0° C.; DL014: 58° C.; DL013: 68.0° C.; DL021: 67.5° C.; DL022: 67.5° C.; and control (two unconnected oligonucleotides without binding moieties having sequences: 3'-TTTTCTTTTCCCCCCT-5' and 5'-TTTTC^Me TTTT(C^Me)6-3'): 32.0° C.
# [2] = system: HIV (infected ATH8 cells); assay: ATH8 cell assay: inhibition of the cytopathic (lytic) effects of HIV infection on ATH8 cells; format: cell-based; conditions: 2 μM and 8 μM
# Description: (§1) Each of the compounds of Table I were tested in an ATH8 cell assay to assess the inhibition of the cytopathic effects of HIV infection on the ATH8 cells. The ATH8 assay is described in the following reference: Matsukura, pages 285-304 in Antisense RNA and DNA (Wiley-Liss, New York, 1992).
# (§2) The cytopathic effect examined in the assay was the lytic effect of HIV and/or drug on the ATH8 cells. A measure of the degree of viral activity is the degree to which cells are lysed at the end of a given time period in culture. Protection against lysis is measured by the size of pellet formed after cells are harvested from culture and centrifuged, as described in the references cited above.
# (§3) Curves 1 and 2 illustrate results from positive and negative controls, i.e. curve 1 illustrates the results for uninfected ATH8 cells without drug (negative control) and curve 2 illustrates the results for infected ATH8 cells without drug (positive control). Curves 3 and 4 illustrate results from cultures containing 8 μM of oligonucleotide clamp in infected and uninfected ATH8 cells, respectively. Curves 5 and 6 illustrate results from cultures containing 2 μM of oligonucleotide clamp in infected and uninfected ATH8 cells, respectively.
# ATH8 cells = assay: Toxicity to ATH8 cells in the ATH8 cell assay; format: cell-based; conditions: 2 μM and 8 μM
# Description: as §1, §2, §3
substance,measurement,setting,value
5'-CACTTTTCTTTTGGGGGGTCACACTCCCCCCTTTTCTTTTAC (chemistry not given here) [DL015],melting temperature,[1],39.0 °C
5'-CACTTTTCTTTTGGGGGGTCACACTCCCCCCTTTTCTTTTAC-Chol [DL014],melting temperature,[1],58 °C
same,"change in pellet size versus time (FIG. 3), effect in words",[2],clear and positive effect at both concentrations
same,"toxicity (FIG. 3), in words",ATH8 cells,without toxicity
5'-Chol-CACTTTTCTTTTGGGGGGTCACACTCCCCCCTTTTCTTTTAC-Chol [DL013],melting temperature,[1],68.0 °C
5'-Chol-CACTTTTCTTTTCCCCCCTCACACACTCCCCCCTTTTCTTTTAC-Chol [DL022],melting temperature,[1],67.5 °C
5'-Chol-TTTTCTTTTCACACTTTTCTTTTGGGGGGTCACACTCCCCCC-Chol [DL021],melting temperature,[1],67.5 °C
